Source: patent US7189717B2, “Medicinal compositions promoting bowel movement” (Eisai Co., Ltd., priority 2000, dated 2007)
Where two headings read alike, the source gives them in different places.

Legend:
[1] = system: rat distal colon longitudinal muscles; settings: cited from earlier work; for Relaxation of Carbachol-contracted muscles: agonist added at 0.1 to 30 μM
[2] = system: guinea pig distal colon longitudinal muscles; settings: cited from earlier work; for pA2 value of the antagonistic action on the relaxing action of NECA: electrical stimulation
[3] = system: guinea pig distal colon longitudinal muscles; settings: KCl + tetrodotoxin, cited from earlier work
[4] = system: guinea pig colon longitudinal muscles; settings: 100 nM; cited from earlier work
SD IGS rats [5] = assay: Defecation-promoting action in rat, number of fecal pellets (Test Example 2); assay type: in vivo; settings: for The number of fecal pellets/3 rats: Test Example 2
Procedure: (§1) SD IGS rats (6-weeks-old, from Charles River) were placed in cages (3 animals/cage) and preliminarily allowed food and water ad libitum and raised for 1 week. On the day of the experiment, their weight was measured, a water-absorbing sheet was placed below each cage, and the animals were fasted but allowed water ad libitum throughout the experiment. Three hours after fasting was initiated, the fecal pellets were recovered from each cage and observed for abnormality before the experiment, and then the compound suspended or dissolved in 0.5% (W/V) methyl cellulose (MC) was orally administered into each rat in a dose of 5 ml/kg. On one hand, 0.5% (W/V) MC only was orally given to the control group. After administering the compound, the rats were returned to the cage provided with a new water-absorbing sheet of known weight, and 180 minutes after the administration, the fecal pellets on the water-absorbing sheet were recovered from each cage, and the external appearance was observed, and the number of fecal pellets was counted. The number of fecal pellets is expressed per each cage (Table 4). After the fecal pellets were recovered, the water-absorbing sheet was weighed, and the weight determined by subtracting the initial weight of the water-adsorbing sheet from the weight after the experiment was regarded as the volume of urine and expressed as the volume of urine per 100 g of the body weight (Table 4).

[6] = Urine volume in rat (Test Example 2); assay type: in vivo; settings: rats, oral, Table 4
Procedure: as §1, with “The number of fecal pellets is expressed per each cage (Table 4).” left out

SD IGS rats [7] = assay: Evaluation of defecation-promoting action (Table 10); assay type: in vivo, rat; settings: 180 minutes, n = 6 cages/group
Procedure: That is, SD IGS rats (6-to 7-weeks-old, from Charles River) were placed in cages (3 animals/cage) and preliminarily allowed food and water ad libitum and raised for 1 week. On the day of the experiment, their weight was measured, a water-absorbing sheet was placed below each cage, and the animals were fasted but allowed water ad libitum throughout the experiment. Thee hours after fasting was initiated, the fecal pellets were recovered from each cage and observed for abnormality before the experiment, and then the compound suspended in 0.5% (w/v) methyl cellulose (MC) was orally administered in a dose of 5 ml/kg. On one hand, 0.5% (w/v) MC only was orally given to the control group. After administration of the compound, the rats were returned to the cage provided with a new water-absorbing sheet, and 180 minutes after the administration, the fecal pellets on the water-absorbing sheet were recovered from each cage, and the external appearance was observed, and the number of fecal pellets was counted. The number of fecal pellets is expressed per each cage.

SD IGS rats [8] = assay: Contribution of inhibition of adenosine A2b receptor to defecation-promoting action (Test Example 3); assay type: in vivo, rat
Procedure: as §1, with “The number of fecal pellets is expressed per each cage (Table 4).” left out, “4). […]” for “4).”

CCNC(=O)[C@H]1O[C@@H](n2cnc3c(N)nc(NCCc4ccc(CCC(=O)O)cc4)nc32)[C@H](O)[C@@H]1O [CGS21680, 2-p-[2-carboxyethyl]phenetylamino-5′-N-ethylarboxyamide adenosine]
Antagonism of the relaxing action of NECA and CPA ([1]; 10 μM): not antagonized
Relaxation of muscles contracted by electrical stimulation [2]: very weak
Relaxing action ([3]; 1 μM): did not act

OC[C@H]1O[C@@H](n2cnc3c(NC4CCCC4)ncnc32)[C@H](O)[C@@H]1O [CPA]
Relaxation of Carbachol-contracted muscles [1]: relaxation was observed
Relaxing action on contraction stimulated by acetylcholine [4]: did not exhibit a relaxing action
Relaxation of muscles contracted by electrical stimulation [2]: relaxation was observed

Nc1ncc(-c2ccncc2)c(-c2ccco2)n1 [Compound I, 2-Amino-4-(2-furyl)-5-(4-pyridyl)pyrimidine]
Defecation-promoting action (in words) (SD IGS rats [5]; rats, oral, Table 4): evidently higher defecation-promoting action
Diuretic action (in words) [6]: weaker diuretic action than the A1-selective antagonist KW3902

CCCn1c(=O)c2[nH]c(C3CCCC3)nc2n(CCC)c1=O [DPCPX]
Antagonism of the relaxing action of NECA and CPA ([1]; 1 μM): antagonized
pA2 value of the antagonistic action on the relaxing action of NECA [2]: 8.8
Antagonistic action on the relaxing action ([3]; 1 nM): did not show an antagonistic action
Antagonistic action on the relaxing action of NECA and CPA ([3]; 10 nM): inhibited the relaxing action of NECA and CPA
pA2 value against CPA [3]: 7.0
pA2 value against NECA [3]: 6.6

Nc1nc(N)c(-c2ccncc2)c(-c2cccc(F)c2)n1 [Example 1, 6-(3-Flurophenyl)-5-(4-pyridyl)-2,4-pyrimidine diamine]
The number of fecal pellets/3 rats (SD IGS rats [7]; 3 mg/kg oral): 14.83 ± 1.82 fecal pellets/3 rats
The number of fecal pellets/3 rats (SD IGS rats [7]; 10 mg/kg oral): 23.17 ± 2.94 fecal pellets/3 rats

Cn1c(=O)c2[nH]c(-c3ccccc3)nc2n(C)c1=O [Example 8-PT, 8-phenyltheophylline]
pA2 value of the antagonistic action on the relaxing action of NECA [2]: 6.5
pA2 value upon inhibition of the action of NECA ([3]; 10 μM): 5.7

CCCn1c(=O)c2[nH]c(C34CC5CC(CC3C5)C4)nc2n(CCC)c1=O [KW3902]
The number of fecal pellets/3 rats (SD IGS rats [8]; KW3902 1 mg/kg together with KW6002 1 mg/kg, 180 minutes): 18.25 ± 1.49 fecal pellets/3 rats
The number of fecal pellets/3 rats (SD IGS rats [8]; KW3902 1 mg/kg without KW6002, 180 minutes): 9.00 ± 1.08 fecal pellets/3 rats
The number of fecal pellets/3 rats (SD IGS rats [5]; 0.3 mg/kg oral, 180 minutes after administration): 10.67 ± 2.08 fecal pellets/3 rats
The number of fecal pellets/3 rats (SD IGS rats [5]; 1 mg/kg oral, 180 minutes): 14.50 ± 1.18 fecal pellets/3 rats
The number of fecal pellets/3 rats (SD IGS rats [5]; 3 mg/kg oral, 180 minutes): 12.83 ± 1.66 fecal pellets/3 rats
Diuretic action (in words) [6]: stronger diuretic action than Compound I

CCNC(=O)[C@H]1O[C@@H](n2cnc3c(N)ncnc32)[C@H](O)[C@@H]1O [NECA, 5′-N-ethylcarboxyamide adenosine]
Relaxation of Carbachol-contracted muscles [1]: relaxation was observed
Relaxing action on contraction stimulated by acetylcholine [4]: did not exhibit a relaxing action
Relaxation of muscles contracted by electrical stimulation [2]: relaxation was observed
